Assay [1] deals with ubiquitinated proteins in T. cruzi epimastigotes. Nature of the assay: Accumulation of ubiquitinated proteins in treated epimastigotes (LC-MS/MS). It is filed as cell-based, Trypanosoma cruzi. The conditions noted are these: epimastigotes pretreated 8 h at 3× EC50 (methods: 8× EC50); one biological replicate. The protocol:
In cells where the function of the proteasome has been compromised, there is a concomitant build-up of ubiquitinated proteins earmarked for degradation. […] Control cultures were treated for the same period of time in the presence of dimethyl sulfoxide (DMSO). Enrichment of ubiquitinated proteins was achieved by immunoprecipitation using magnetic beads conjugated to an antibody specific for the remnant of ubiquitinated lysines following digestion with trypsin and/or LysC. We used liquid chromatography-tandem mass spectrometry (LC-MS/MS) to calculate the ubiquitination ratio of each sample by dividing the reporter intensity of ubiquitinated proteins by the reporter intensity of total protein (see Table S8). As expected, the accumulation of ubiquitinylated proteins was highest in epimastigotes treated with bortezomib (2.7-fold higher than in the DMSO-treated control), which is known to inhibit all three catalytic activities of the proteasome (Fig. 3). […] Similarly, ubiquitinated proteins accumulated to levels 1.9-fold higher in compound 1-treated parasites compared to those recovered from DMSO-treated control cells.
Controls were incubated in the presence of diluent (DMSO). Cells were harvested by centrifugation (1,912 × g, 15 min, 4°C) and washed with ice-cold PBS (1,912 × g, 5 min, 4°C); finally, the cell pellets were resuspended in 1.5 ml of ice-cold lysis buffer (1 mM EDTA, 1 mM DTT, 100 μM TLCK, and 1× Roche EDTA-free cOmplete protease inhibitor cocktail in 50 mM potassium phosphate buffer [pH 7.4]). Cell suspensions were submitted to three freeze-thaw cycles in a dry ice/ethanol bath to biologically inactivate the parasites and then lysed using a OneShot cell disruptor (Constant Systems) at 30 kpsi.
Cell lysates were centrifuged (100,000 × g, 20 min, 4°C), supernatants were collected, and the protein concentrations were determined by using a standard Bio-Rad protein assay. […]

The test system of a further assay is T. cruzi epimastigotes. Description: T. cruzi epimastigote drug sensitivity assay (resazurin). It is filed as cell-based, Trypanosoma cruzi. Conditions: for EC50: Trypanosoma cruzi; for susceptibility of CRISPR-edited epimastigotes: β4 F24L and I29M, at all of the concentrations tested. Here is the method: To examine the effects of test compounds on the growth of T. cruzi epimastigotes, mid-log-phase parasites were seeded into 96-well plates at a cell density of 5 × 10^5 cells ml^−1. Cells were exposed to test compounds over a range of concentrations (2-fold serial dilutions). Cells were incubated for 4 days, and then 20 μl of 2.5 mM resazurin was added to each well, before measuring the fluorescence (excitation, 528 nm; emission, 590 nm), following a further 24 h of incubation. […] In this equation, [I] represents the inhibitor concentration, and m is the slope factor. Experiments were repeated at least two times, and the data are presented as means plus the standard deviations.
A general note: The colour change of resazurin is a common sign of viable cells or microbes.

In assay [2] the test system is T. cruzi amastigotes within Vero cells. Description: Drug sensitivity assay against T. cruzi-infected Vero cells (intracellular amastigotes). The conditions noted are these: for EC50: Trypanosoma cruzi, Vero. In kind it is cell-based, Trypanosoma cruzi. Here is the method: The clonal Leishmania donovani cell line LdBOB (derived from MHOM/SD/62/1S-CL2D) was grown as either promastigotes or axenic amastigotes in media specific for each developmental stage, as previously described ([32]). T. cruzi epimastigotes from the Silvio strain (MHOM/BR/78/Silvio; clone X10/7A [33]) were grown at 28°C in RTH/FBS (RPMI 1640 medium supplemented with Trypticase, hemin, HEPES, and 10% heat-inactivated fetal calf serum (FCS) [Fisher Scientific]) ([34]). Bloodstream form T. brucei “single marker” S427 (T7RPOL TETR NEO) were cultured in the presence of G418 (15 μg ml^−1) at 37°C in HMI9-T media in the presence of 5% CO2. HepG2 cells (ECACC 85011430) were obtained from European Collection of Authenticated Cell Culture (ECACC). Cells were maintained in full growth medium (minimal essential medium [MEM] with GlutaMAX (Thermo Fisher), supplemented with 1% MEM nonessential amino acids (Sigma) and 10% heat-inactivated FBS and cultured at 37°C in the presence of 5% CO2. Cells were passaged twice weekly by detaching adherent cells with 0.05% trypsin/EDTA (Sigma) and diluted into fresh media. Cells were never grown beyond 80% confluence. Vero cells (African green monkey kidney cells; ECCAC 84113001) were maintained at 37°C, 5% CO2 in Dulbecco modified Eagle medium (DMEM; Lonza) supplemented with 10% FCS and subcultured every 2 days. T. cruzi metacyclic trypomastigotes were obtained from late-log-phase epimastigote cultures (initial inoculum, 10^6 ml^−1) after ca. 7 to 10 days at 28°C in RTH/FBS. Trypomastigote-rich cultures were incubated with Vero cells overnight at 37°C and 5% CO2 in DMEM/10% FCS. The following day, extracellular parasites were removed by washing the Vero cell monolayer three times. Infected monolayers were maintained at 37°C and in 5% CO2, DMEM/10% FCS was replaced every 48 h until the trypomastigotes reemerged from the Vero cells ([9]).
Drug sensitivity assays against T. cruzi-infected Vero cells were carried out as previously described ([37]); however, in this instance, assays were carried out in 96-well plates. Data were processed using GRAFIT (Erithacus software) and fitted to a two-parameter equation, as described above.

Another assay deals with T. cruzi. Conditions: cited from earlier work.
The subject of a further assay is Chagas' disease. Conditions: in vivo; cited from earlier work.
The mark [3] stands for this setting: read-out: Mean EC50 ± SD, cell line RES II (compound 1-resistant, β5 D225N).
Setting [4] is: read-out: Mean EC50 ± SD, cell line RES IV (compound 1-resistant, no proteasome mutation).
[5] abbreviates: cell line Wild type, read-out: Mean EC50 ± SD.
The mark [6] stands for this setting: read-out: Mean EC50 ± SD, cell line RES I (compound 1-resistant, β5 D225N).
[7] abbreviates: read-out: Mean EC50 ± SD, cell line RES III (compound 1-resistant, β5 D225N).
[8] abbreviates: read-out: Mean EC50 ± SD, cell line RES V (compound 1-resistant, β4 I27T).
Where [9] appears, read: read-out: Mean EC50 ± SD, cell line Res I-β5 OE (β5 WT overexpressed in RES I).
Where [10] appears, read: read-out: Mean EC50 ± SD, cell line β4 F24L/I29M (CRISPR-edited).
Setting [11] is: read-out: Mean EC50 ± SD, cell line β5 D225N-OE (overexpressing mutated β5).
Where [12] appears, read: in Vero cells, cell line RES 1, read-out: EC50 values.
Setting [13] is: in Vero cells, cell line RES 5, read-out: EC50 values.
The mark [14] stands for this setting: in Vero cells, cell line Wild-type, read-out: EC50 values.
Where [15] appears, read: read-out: EC50 values, in Vero cells, cell line β4 F24L/I29M.

SMILES strings stand for the structures. Read-outs that look alike come from different tables or passages of the source. Where only a bound is given, the exact number is not on record here.

Take `CC(C)C[C@H](NC(=O)[C@H](Cc1ccccc1)NC(=O)c1cnccn1)B(O)O` [Bortezomib, bortezomib]: the “accumulation of ubiquitinated proteins versus DMSO-treated control” value in assay [1] was determined as 2.7 fold. The EC50 was 0.3 ± 0.01 µM in the assay on T. cruzi epimastigotes (setting [3]); 0.6 ± 0.05 µM in the assay on T. cruzi epimastigotes (setting [4]); 0.2 ± 0.004 µM in the assay with T. cruzi epimastigotes (read-out: Mean EC50 ± SD, cell line Wild type). In addition, the “fold change versus the WT” value in the assay on T. cruzi epimastigotes (cell line RES I) came out at 1 fold; in the assay with T. cruzi epimastigotes (cell line RES II), 1 fold; in the assay with T. cruzi epimastigotes (cell line RES III) it was 1 fold; in the assay with T. cruzi epimastigotes (cell line RES IV), 2.5 fold; in the assay with T. cruzi epimastigotes (cell line RES V), 1 fold; in the assay on T. cruzi epimastigotes (cell line Res I-β5 OE), 1 fold. Further, the “fold change versus the WT” value in the assay on T. cruzi epimastigotes (cell line β4 F24L/I29M) and in the assay on T. cruzi epimastigotes (cell line β5 D225N-OE) was 1 fold each time. Further, in the assay on T. cruzi epimastigotes (compound 1-resistant clones RES I to V), the “cross-resistance against RES I to V clones” value is reported as “no evidence of cross-resistance”.

For `O=C(Nc1ccc(F)c(-c2cn3nc(-c4ccccc4)cnc3n2)c1)N1CCCC1` [Compound 2], the EC50 in the assay on T. cruzi epimastigotes (setting [5]) was determined as 0.04 ± 0.001 µM; with T. cruzi epimastigotes (setting [6]) it was 4 ± 0.08 µM; with T. cruzi epimastigotes (setting [3]) it was 5 ± 0.2 µM; with T. cruzi epimastigotes (setting [7]) it was 5 ± 0.4 µM; in the assay on T. cruzi epimastigotes (setting [4]), 0.1 ± 0.01 µM; in the assay with T. cruzi epimastigotes (setting [8]) it was 0.8 ± 0.03 µM. Besides, the EC50 in the assay on T. cruzi epimastigotes (setting [9]) is 0.3 ± 0.01 µM; in the assay with T. cruzi epimastigotes (setting [10]), > 10 µM; with T. cruzi epimastigotes (setting [11]), 2 ± 0.1 µM. For the same compound, the “fold change versus the WT” value with T. cruzi epimastigotes (cell line RES I) is reported as 100 fold; with T. cruzi epimastigotes (cell line RES II), 125 fold; with T. cruzi epimastigotes (cell line RES III), 125 fold; in the assay with T. cruzi epimastigotes (cell line RES IV), 2.5 fold; with T. cruzi epimastigotes (cell line RES V), 20 fold; with T. cruzi epimastigotes (cell line Res I-β5 OE), 6.5 fold. In addition, the “fold change versus the WT” value is on record as > 250 fold with T. cruzi epimastigotes (cell line β4 F24L/I29M) and 58 fold in the assay with T. cruzi epimastigotes (cell line β5 D225N-OE). Moreover, in the assay with T. cruzi epimastigotes, the “susceptibility of CRISPR-edited epimastigotes” value is recorded as “refractory”.

With `CSc1ccc(OCc2ncc([N+](=O)[O-])n2C)cc1` [Fexinidazole, fexinidazole], the EC50 came to 5 ± 1 µM in assay [2] (in Vero cells, cell line ME OE, (*) one biological replicate, read-out: EC50 values); 8 ± 1 µM in assay [2] (setting [12]); 4 ± 0.7 µM in assay [2] (setting [13]); 4 ± 0.8 µM in assay [2] (setting [14]); 4 ± 0.6 µM in assay [2] (in Vero cells, cell line β5 OE rescue R1, (*) one biological replicate, read-out: EC50 values); 6 ± 0.6 µM in assay [2] (setting [15]). For the same compound, in assay [2] (read-out: EC50 values, in Vero cells, cell line β5 OE), the EC50 amounted to 3 ± 0.3 µM. For the same compound, the “fold change versus WT” value is listed as 1 fold in assay [2] (in Vero cells, cell line ME OE); 2 fold in assay [2] (in Vero cells, cell line RES 1); 1 fold in assay [2] (in Vero cells, cell line RES 5); 1 fold in assay [2] (in Vero cells, cell line Wild-type); 2 fold in assay [2] (in Vero cells, cell line β4 F24L/I29M); 1 fold in assay [2] (in Vero cells, cell line β5 D225N-OE). The “fold change versus WT” value in assay [2] (in Vero cells, cell line β5 OE) was found to be 1 fold; in assay [2] (in Vero cells, cell line β5 OE rescue R1), 1 fold.

Consider `Cc1nc(C)c(C(=O)Nc2ccc(F)c(-c3nc4ncc(-c5ccccn5)cn4n3)c2)o1` [GNF6702], for which the EC50 in assay [2] (setting [12]) is 16 ± 3 µM; in assay [2] (setting [13]) it was 3 ± 0.4 µM; in assay [2] (setting [14]) it was 0.2 ± 0.03 µM; in assay [2] (in Vero cells, cell line β5 OE, read-out: EC50 values) it was 0.2 ± 0.1 µM; in assay [2] (setting [15]), > 1.5 µM; in assay [2] (read-out: EC50 values, in Vero cells, cell line β5 D225N-OE, (*) one biological replicate), > 5 µM. In addition, the EC50 in the assay on T. cruzi epimastigotes (setting [5]) was 0.3 ± 0.02 µM; in the assay with T. cruzi epimastigotes (setting [6]), > 10 µM; with T. cruzi epimastigotes (setting [3]), > 10 µM; in the assay with T. cruzi epimastigotes (setting [7]), > 10 µM; in the assay with T. cruzi epimastigotes (setting [4]) it was > 10 µM; with T. cruzi epimastigotes (setting [8]), 10 ± 0.2 µM. The EC50 was 2 ± 0.3 µM with T. cruzi epimastigotes (setting [9]), > 10 µM with T. cruzi epimastigotes (setting [10]) and > 10 µM with T. cruzi epimastigotes (setting [11]). Besides, the “accumulation of ubiquitinated proteins versus DMSO-treated control” value in assay [1] came out at 1.45 fold. Moreover, the “treated mice with no detectable parasites in blood, colon, or heart tissue” value in the assay with T. cruzi (10 mg kg−1 twice daily, after 4 weeks of immunosuppression) is on record as “All but one of the eight”. For the same compound, in the assay on T. cruzi (dosed twice daily at 10 mg kg−1), the “efficacy in a mouse model of infection” value is recorded as “matched the efficacy of benznidazole”. In addition, the “susceptibility of CRISPR-edited epimastigotes” value in the assay on T. cruzi epimastigotes is recorded as “refractory”.

For the compound `CC1CS(=O)(=O)CCN1/N=C/c1ccc([N+](=O)[O-])o1` (stereo not drawn) [nifurtimox], in the assay with Chagas' disease, the individuals cured entry was “up to 70%”.

Source of the values: publication PMC8765320, “Identification of a Proteasome-Targeting Arylsulfonamide with Potential for the Treatment of Chagas’ Disease” (Antimicrobial Agents and Chemotherapy, 2022).
